From the supplement of paper PMC11208160

experiment: recombinant barcode read abundance after kanamycin selection (control-corrected) (log10(CPM+1)); higher = more efficient recombination; sequences stand for … in AGTGCAGAGAAAATCGGCCAGTTTTCTCTGCCTGCAGTCCGCATGCCGT…ATTTATGCAGCGGACTGCCTTTCTCCCAAAGTGATAAACCGGACAGTATCATGGACCGGTTTTCCCGGTAATCCGTATTTGCAAGGTTGGTTTCACT; site = the 11-nt target
How it was run: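 Targets and IS621 bridge RNA target-binding loops were paired in oligos, each with a promoter, a barcode and the J23119-driven first 104 bridge RNA bases. A vector carrying the remaining 73 bp and a T7-inducible recombinase received these by Gibson cloning, and the pool was co-electroporated into E. coli with a donor plasmid. Duplicate plates contained chloramphenicol/ampicillin LB agar (control) or chloramphenicol/ampicillin/kanamycin with 0.1 mM IPTG. Recombination efficiency comes from averaged, control-corrected counts per million of recombinant-junction barcodes, reported as log10(CPM+1).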

“ATGTCCCCTTGGGTTCTAACCTGTTGCTCCA [ATGTCCCCTGA_LTGcore_CT_RTGcore_TG] (site ATGTCCCCTGA) (LTG core: CT, RTG core: TG)” and “ATGTCCCCTTGGGTTCTAACCTGTTGCTCCT [ATGTCCCCTGA_LTGcore_CT_RTGcore_AG] (site ATGTCCCCTGA) (LTG core: CT, RTG core: AG)” are within 0.2 log units of each other in “recombinant barcode read abundance (log10)” value: 0.0151 for the first, 0.205 for the second.

“ATGTCCCCTTGGGTTCTAACCTGTTGCTCTG [ATGTCCCCTGA_LTGcore_CT_RTGcore_CA] (site ATGTCCCCTGA) (LTG core: CT, RTG core: CA)” and “ATGTCCCGCTGGGTTCTAACCTGTTGCTCAG [ATGTCCCCTGA_LTGcore_GC_RTGcore_CT] (site ATGTCCCCTGA) (LTG core: GC, RTG core: CT)” are within 0.2 log units of each other in “recombinant barcode read abundance (log10)” value: 0.00868 for the first, 0 for the second.

Compared with “ATGTCCCGGTGGGTTCTAACCTGTTGCTCCC [ATGTCCCCTGA_LTGcore_GG_RTGcore_GG] (site ATGTCCCCTGA) (LTG core: GG, RTG core: GG)”, “CATATTAAATGGGTTCTAACCTGTTGCCTTT [CATATTACTAG_LTGcore_AA_RTGcore_AA] (site CATATTACTAG) (LTG core: AA, RTG core: AA)” is higher in “recombinant barcode read abundance (log10)” value: 0.109 for the first, 1.4 for the second.

“CATATTAACTGGGTTCTAACCTGTTGCCTGT [CATATTACTAG_LTGcore_AC_RTGcore_AC] (site CATATTACTAG) (LTG core: AC, RTG core: AC)” and “CATATTAAGTGGGTTCTAACCTGTTGCCTAG [CATATTACTAG_LTGcore_AG_RTGcore_CT] (site CATATTACTAG) (LTG core: AG, RTG core: CT)” are within 0.2 log units of each other in “recombinant barcode read abundance (log10)” value: 0.119 for the first, 0.0215 for the second.

Compared with “CATATTAATTGGGTTCTAACCTGTTGCCTAT [CATATTACTAG_LTGcore_AT_RTGcore_AT] (site CATATTACTAG) (LTG core: AT, RTG core: AT)”, “CATATTACCTGGGTTCTAACCTGTTGCCTGG [CATATTACTAG_LTGcore_CC_RTGcore_CC] (site CATATTACTAG) (LTG core: CC, RTG core: CC)” is higher in “recombinant barcode read abundance (log10)” value: 0.0885 for the first, 0.638 for the second.

Compared with “CATATTACGTGGGTTCTAACCTGTTGCCTCG [CATATTACTAG_LTGcore_CG_RTGcore_CG] (site CATATTACTAG) (LTG core: CG, RTG core: CG)”, “CATATTACTTGGGTTCTAACCTGTTGCCTCG [CATATTACTAG_LTGcore_CT_RTGcore_CG] (site CATATTACTAG) (LTG core: CT, RTG core: CG)” is lower in “recombinant barcode read abundance (log10)” value: 0.443 for the first, 0.0475 for the second.

“CATATTACTTGGGTTCTAACCTGTTGCCTGA [CATATTACTAG_LTGcore_CT_RTGcore_TC] (site CATATTACTAG) (LTG core: CT, RTG core: TC)” and “CATATTACTTGGGTTCTAACCTGTTGCCTGG [CATATTACTAG_LTGcore_CT_RTGcore_CC] (site CATATTACTAG) (LTG core: CT, RTG core: CC)” are within 0.2 log units of each other in “recombinant barcode read abundance (log10)” value: 0.138 for the first, 0.0433 for the second.

“CATATTATGTGGGTTCTAACCTGTTGCCTAG [CATATTACTAG_LTGcore_TG_RTGcore_CT] (site CATATTACTAG) (LTG core: TG, RTG core: CT)” and “CGAGCCCAATGGGTTCTAACCTGTTGCTGAG [CGAGCCCCTCA_LTGcore_AA_RTGcore_CT] (site CGAGCCCCTCA) (LTG core: AA, RTG core: CT)” are within 0.2 log units of each other in “recombinant barcode read abundance (log10)” value: 0.0521 for the first, 0.0167 for the second.

“CGAGCCCACTGGGTTCTAACCTGTTGCTGAG [CGAGCCCCTCA_LTGcore_AC_RTGcore_CT] (site CGAGCCCCTCA) (LTG core: AC, RTG core: CT)” and “CGAGCCCAGTGGGTTCTAACCTGTTGCTGAG [CGAGCCCCTCA_LTGcore_AG_RTGcore_CT] (site CGAGCCCCTCA) (LTG core: AG, RTG core: CT)” are within 0.2 log units of each other in “recombinant barcode read abundance (log10)” value: 0.0532 for the first, 0.139 for the second.

Going from “CGAGCCCATTGGGTTCTAACCTGTTGCTGAT [CGAGCCCCTCA_LTGcore_AT_RTGcore_AT] (site CGAGCCCCTCA) (LTG core: AT, RTG core: AT)” to “CGAGCCCCCTGGGTTCTAACCTGTTGCTGAG [CGAGCCCCTCA_LTGcore_CC_RTGcore_CT] (site CGAGCCCCTCA) (LTG core: CC, RTG core: CT)”, the “recombinant barcode read abundance (log10)” value rises from 0.0704 to 0.805.

Going from “CGAGCCCCTTGGGTTCTAACCTGTTGCTGAG [CGAGCCCCTCA_LTGcore_CT_RTGcore_CT] (site CGAGCCCCTCA) (LTG core: CT, RTG core: CT)” to “CGAGCCCCTTGGGTTCTAACCTGTTGCTGGG [CGAGCCCCTCA_LTGcore_CT_RTGcore_CC] (site CGAGCCCCTCA) (LTG core: CT, RTG core: CC)”, the “recombinant barcode read abundance (log10)” value falls from 2.65 to 0.164.

“CGAGCCCCTTGGGTTCTAACCTGTTGCTGTC [CGAGCCCCTCA_LTGcore_CT_RTGcore_GA] (site CGAGCCCCTCA) (LTG core: CT, RTG core: GA)” and “CGAGCCCCTTGGGTTCTAACCTGTTGCTGTT [CGAGCCCCTCA_LTGcore_CT_RTGcore_AA] (site CGAGCCCCTCA) (LTG core: CT, RTG core: AA)” are within 0.2 log units of each other in “recombinant barcode read abundance (log10)” value: 0.248 for the first, 0.266 for the second.

First: CGAGCCCGATGGGTTCTAACCTGTTGCTGTC [CGAGCCCCTCA_LTGcore_GA_RTGcore_GA] (site CGAGCCCCTCA) (LTG core: GA, RTG core: GA)
Second: CGAGCCCTGTGGGTTCTAACCTGTTGCTGCA [CGAGCCCCTCA_LTGcore_TG_RTGcore_TG] (site CGAGCCCCTCA) (LTG core: TG, RTG core: TG)
The “recombinant barcode read abundance (log10)” value of the first is lower: 0.188 for the first, 0.646 for the second.

“CGCGCCCCATGGGTTCTAACCTGTTGCGGAG [CGCGCCCCTCC_LTGcore_CA_RTGcore_CT] (site CGCGCCCCTCC) (LTG core: CA, RTG core: CT)” and “CGCGCCCCATGGGTTCTAACCTGTTGCGGTG [CGCGCCCCTCC_LTGcore_CA_RTGcore_CA] (site CGCGCCCCTCC) (LTG core: CA, RTG core: CA)” are within 0.2 log units of each other in “recombinant barcode read abundance (log10)” value: 0.303 for the first, 0.162 for the second.

“CGCGCCCCCTGGGTTCTAACCTGTTGCGGGG [CGCGCCCCTCC_LTGcore_CC_RTGcore_CC] (site CGCGCCCCTCC) (LTG core: CC, RTG core: CC)” and “CGCGCCCCGTGGGTTCTAACCTGTTGCGGAG [CGCGCCCCTCC_LTGcore_CG_RTGcore_CT] (site CGCGCCCCTCC) (LTG core: CG, RTG core: CT)” are within 0.2 log units of each other in “recombinant barcode read abundance (log10)” value: 0.117 for the first, 0.167 for the second.

Going from “CGCGCCCCGTGGGTTCTAACCTGTTGCGGCG [CGCGCCCCTCC_LTGcore_CG_RTGcore_CG] (site CGCGCCCCTCC) (LTG core: CG, RTG core: CG)” to “CGCGCCCCTTGGGTTCTAACCTGTTGCGGAA [CGCGCCCCTCC_LTGcore_CT_RTGcore_TT] (site CGCGCCCCTCC) (LTG core: CT, RTG core: TT)”, the “recombinant barcode read abundance (log10)” value rises from 0 to 0.319.

“CGCGCCCCTTGGGTTCTAACCTGTTGCGGCC [CGCGCCCCTCC_LTGcore_CT_RTGcore_GG] (site CGCGCCCCTCC) (LTG core: CT, RTG core: GG)” and “CGCGCCCCTTGGGTTCTAACCTGTTGCGGGG [CGCGCCCCTCC_LTGcore_CT_RTGcore_CC] (site CGCGCCCCTCC) (LTG core: CT, RTG core: CC)” are within 0.2 log units of each other in “recombinant barcode read abundance (log10)” value: 0.215 for the first, 0.105 for the second.

“CGCGCCCGGTGGGTTCTAACCTGTTGCGGCC [CGCGCCCCTCC_LTGcore_GG_RTGcore_GG] (site CGCGCCCCTCC) (LTG core: GG, RTG core: GG)” and “CGCGCCCTGTGGGTTCTAACCTGTTGCGGAG [CGCGCCCCTCC_LTGcore_TG_RTGcore_CT] (site CGCGCCCCTCC) (LTG core: TG, RTG core: CT)” are within 0.2 log units of each other in “recombinant barcode read abundance (log10)” value: 0.307 for the first, 0.301 for the second.

“CGGTCCCCTTGGGTTCTAACCTGTTGCCACC [CGGTCCCCTTG_LTGcore_CT_RTGcore_GG] (site CGGTCCCCTTG) (LTG core: CT, RTG core: GG)” and “CGGTCCCTATGGGTTCTAACCTGTTGCCATA [CGGTCCCCTTG_LTGcore_TA_RTGcore_TA] (site CGGTCCCCTTG) (LTG core: TA, RTG core: TA)” are within 0.2 log units of each other in “recombinant barcode read abundance (log10)” value: 0.18 for the first, 0.282 for the second.

“CGGTCCCTGTGGGTTCTAACCTGTTGCCAAG [CGGTCCCCTTG_LTGcore_TG_RTGcore_CT] (site CGGTCCCCTTG) (LTG core: TG, RTG core: CT)” and “CGGTCCCTTTGGGTTCTAACCTGTTGCCAAA [CGGTCCCCTTG_LTGcore_TT_RTGcore_TT] (site CGGTCCCCTTG) (LTG core: TT, RTG core: TT)” are within 0.2 log units of each other in “recombinant barcode read abundance (log10)” value: 0.0242 for the first, 0.0728 for the second.

Compared with “GAGCCCAAATGGGTTCTAACCTGTTGCCTAG [GAGCCCACTAG_LTGcore_AA_RTGcore_CT] (site GAGCCCACTAG) (LTG core: AA, RTG core: CT)”, “GAGCCCACTTGGGTTCTAACCTGTTGCCTCA [GAGCCCACTAG_LTGcore_CT_RTGcore_TG] (site GAGCCCACTAG) (LTG core: CT, RTG core: TG)” is higher in “recombinant barcode read abundance (log10)” value: 0.0475 for the first, 0.593 for the second.

“GAGCCCACTTGGGTTCTAACCTGTTGCCTCG [GAGCCCACTAG_LTGcore_CT_RTGcore_CG] (site GAGCCCACTAG) (LTG core: CT, RTG core: CG)” and “GAGCCCACTTGGGTTCTAACCTGTTGCCTTA [GAGCCCACTAG_LTGcore_CT_RTGcore_TA] (site GAGCCCACTAG) (LTG core: CT, RTG core: TA)” are within 0.2 log units of each other in “recombinant barcode read abundance (log10)” value: 0.1 for the first, 0.296 for the second.

In the case of “GAGCCCAGATGGGTTCTAACCTGTTGCCTAG [GAGCCCACTAG_LTGcore_GA_RTGcore_CT] (site GAGCCCACTAG) (LTG core: GA, RTG core: CT)”, the “recombinant barcode read abundance (log10)” value is reported as 0.163.
